Here are results for 1 compound from US20250339051A1, “DYNAMIC CHEMICAL-EXCHANGE-SATURATION-TRANSFER (CEST) AGENT ENHANCED MRI USING DIRECT WATER SATURATION” (The Johns Hopkins University, priority 2024, published 2025).

Data set [1] relates to brain tumor patients. Particulars: cited from earlier work.
For data set [2], the system named is brain tumor patients. In words: DS-DGE MRI at 3 T in brain tumor patients with D-Glc infusion. The conditions noted are these: in vivo. Set-up: species or system human. From the text: Four brain tumor patients were studied (one with an IDH-wildtype glioblastoma, two with a grade 2 IDH-mutated astrocytoma, and one with ALK-mutated non-small-cell lung cancer metastases). The project was approved by the local Institutional Review Board, and each participant provided written informed consent. Participants were asked to fast six hours before the study, but clear liquids were permitted. Before the start of the MRI examination, blood was drawn to verify normal baseline glucose levels (3.9-7.0 mM).
Patients were examined on a 3 T Philips Elition RX system (Philips Healthcare, Best, the Netherlands). Pre- and post-contrast enhanced T1-MPRAGE, FLAIR, DS-DGE, DCE and DSC images were acquired T1-MPRAGE: TR/TE/FA=7.5 ms/3.5 ms/8°, FOV=212×212 mm^2, resolution=1.1×1.1×2.2 mm^3, inversion time=755 ms, acquisition time=1 min 46 s, and FLAIR: TR/TE=11,000/120 ms, FOV=212×212 mm^2 resolution=1.1×1.1×2.2 mm^3, inversion time=2800 ms, acquisition time=3 min 51 s.
DS-DGE images were acquired using ten consecutive 50-ms sinc-gaussian pulses (B1peak=0.5 μTtsat=0.5 s), followed by a whole-brain simultaneous multi-slice EPI readout (multi-band factor 3). A total of 27 slices with FOV of 208×208 mm^2 and a resolution of 2.2×2.2×4.4 mm^3 were acquired using TR/TE/FA=1200 ms/17 ms/52°. 32 frequencies were acquired in 38.2 s at offsets: ±[10 (2×), 5.0, 2.5, 2.0, 1.5, 1.2, 1.0, 0.80, 0.70, 0.60, 0.50, 0.40, 0.30, 0.20, 0.10] ppm. In total 40 dynamics (Z-spectra) were acquired. Approximately five minutes into the scan (after the 8th dynamic), D-Glc was administrated intravenously with a power-injector at a rate of 6.25 g/min using hospital-grade D50 glucose (D50, Hospira Inc., Lake Forest, IL; 35 g of D-Glc in 70 mL of water sterile solution prepared by the Johns Hopkins pharmacy), followed by a saline rinse. Total experiment duration was 25.5 min.
The dynamic DS spectrum signal intensities from each voxel were normalized using the average of the second of two acquisitions at ±10 ppm and then fitted to a Lorentzian line shape using the DL-based single Lorentzian fitting neural network (sLoFNet)^43. The linewidths, defined as FWHM in the DL fitting, were used to generate LW maps (in Hz) for each dynamic. The dynamic linewidth maps were rigid motion corrected using Elastix^48 and visually inspected for remaining motion artefacts.
A baseline was calculated by averaging the linewidth maps obtained before infusion. To remove outliers, baseline LWs greater or less than the average±2SD were discarded. LWbase was then calculated by averaging the remaining baseline LWs. Dynamic ΔLW images were obtained by subtracting LWbase from each linewidth dynamic image, LW(t), followed by normalization with LWbase:
Normalized area-under-the-curve (AUC) was calculated by subtracting LWbase from the average of dynamic LWs obtained from infusion start and through the dynamic scan (LWaverage), followed by normalization with LWbase:
Normalized AUC over the infusion block alone was also calculated. Both fitting and calculations were performed in Python.

For data set [3] the following is noted: cited from earlier work.
The conditions of data set [4]: cited from earlier work. The source holds these as a separate data set.

Structures are written as SMILES. Read-outs that look alike come from different tables or passages of the source. Some results are limits rather than exact numbers.

As for `O=C[C@H](O)[C@@H](O)[C@H](O)[C@H](O)CO` [D-glucose], the “DGE MRI effect size” value in data set [1] (contrast enhanced tumor area, LGG and HGG patients, maximum dose 20 g of D-Glc in 100 mL, Bender et al.) is listed as no more than 0.25%; in data set [1] (glioblastoma, 3 T, Xu et al.), “approximately 1.5%”; in data set [1] (low and high grade glioma enhancement areas, dose of 25 g, Mo et al.) it was 0.5-1.5%. For the same compound, the “DGE MRI signal increase after D-Glc infusion” value in data set [1] (metastases, Wu et al.) was no more than 10%. Also, the “ΔLW (DS linewidth change)” value was roughly 40% in data set [2] ((ventricular) CSF, 35 g D-glucose infusion, 3 T); “approximately 1%” in data set [2] (GM/WM, 35 g D-glucose infusion, 3 T); “approximately 15%” in data set [2] (contrast enhanced peri-cavity infiltrative tumor region, recurrent IDH-wildtype glioblastoma patient, during infusion); 5-20% in data set [2] (different tumor types, 35 g D-glucose infusion, 3 T). Further, the LW change result in data set [2] (white matter, lung cancer brain metastases patient) was “negligible”. For the same compound, in data set [3] (D-Glc dose of 25 g, N=11, previous DGE MRI study), the “venous plasma blood glucose average increase” value is reported as 9.8 mM. Besides, the “increase in plasma blood glucose” value in data set [3] (maximum D-Glc dose of 25 g, previous DGE studies) is given as “up to 15 mM”. Also, the “hydroxyl proton exchange rate” value in data set [4] (hydroxyl pool at 0.66 ppm, pH 6.8 (TUMOR EES)) is 1500 Hz; in data set [4] (hydroxyl pool at 0.66 ppm, pH 7.2, 37° C.), 2900 Hz; in data set [4] (hydroxyl pool at 1.28 ppm, pH 6.8 (TUMOR EES)), 3100 Hz; in data set [4] (hydroxyl pool at 1.28 ppm, pH 7.2, 37° C.), 6500 Hz; in data set [4] (hydroxyl pool at 2.08 ppm, pH 6.8 (TUMOR EES)), 2500 Hz; in data set [4] (hydroxyl pool at 2.08 ppm, pH 7.2, 37° C.), 5200 Hz. The “hydroxyl proton exchange rate” value in data set [4] (hydroxyl pool at 2.88 ppm, pH 6.8 (TUMOR EES)) was 6000 Hz; in data set [4] (hydroxyl pool at 2.88 ppm, pH 7.2, 37° C.), 14300 Hz.
